Values of other authors, collected in patent US9833455B2, “Preparation and methods of use for ortho-aryl 5-membered heteroaryl-carboxamide containing multi-targeted kinase inhibitors” (Spacefill Enterprises LLC, priority 2011, dated 2017).

Columns and labels:
Details in all cases: 1 μM, duplicate, without preincubation; cited from earlier work
[1] = target: T1, RAF1 (Homo sapiens, UniProt P04049)
T1 construct: literature Ambit Biosciences

[2] = target: BRAF(V600E) (Homo sapiens, UniProt P15056, V600E); design: literature Ambit Biosciences
[3] = target: T2, PLK4 (Homo sapiens, UniProt O00444)
T2 construct: literature Ambit Biosciences
T2 sequence (O00444 1-970): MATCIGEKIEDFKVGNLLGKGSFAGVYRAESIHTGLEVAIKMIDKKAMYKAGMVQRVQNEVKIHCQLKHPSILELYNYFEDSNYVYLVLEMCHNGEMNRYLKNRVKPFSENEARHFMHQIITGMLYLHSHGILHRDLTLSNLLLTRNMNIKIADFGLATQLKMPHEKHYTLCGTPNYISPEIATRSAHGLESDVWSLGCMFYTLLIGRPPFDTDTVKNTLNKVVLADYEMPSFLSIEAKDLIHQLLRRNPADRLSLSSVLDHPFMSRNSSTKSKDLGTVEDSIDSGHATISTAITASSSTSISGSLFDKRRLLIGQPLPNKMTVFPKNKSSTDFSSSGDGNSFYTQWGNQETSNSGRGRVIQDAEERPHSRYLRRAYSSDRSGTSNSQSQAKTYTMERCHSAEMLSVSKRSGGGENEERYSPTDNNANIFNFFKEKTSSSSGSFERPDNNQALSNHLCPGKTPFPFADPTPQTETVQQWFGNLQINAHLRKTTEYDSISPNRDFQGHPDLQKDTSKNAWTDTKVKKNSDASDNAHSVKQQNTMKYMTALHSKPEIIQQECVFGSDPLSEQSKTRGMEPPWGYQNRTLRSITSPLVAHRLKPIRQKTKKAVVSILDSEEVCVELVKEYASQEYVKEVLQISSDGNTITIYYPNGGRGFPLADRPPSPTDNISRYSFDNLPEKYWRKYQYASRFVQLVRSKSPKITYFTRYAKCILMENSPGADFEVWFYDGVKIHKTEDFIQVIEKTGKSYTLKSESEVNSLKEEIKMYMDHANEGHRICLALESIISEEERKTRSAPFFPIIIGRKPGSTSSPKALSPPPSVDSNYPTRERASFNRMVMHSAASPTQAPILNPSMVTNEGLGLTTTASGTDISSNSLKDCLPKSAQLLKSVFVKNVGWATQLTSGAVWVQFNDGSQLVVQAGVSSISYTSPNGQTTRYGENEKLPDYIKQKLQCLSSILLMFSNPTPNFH

[4] = target: T3, ERBB2 (Homo sapiens, UniProt P04626)
T3 construct: literature Ambit Biosciences

[5] = target: KIT (Homo sapiens, UniProt P10721)
[6] = target: T4, PDGFRA (Homo sapiens, UniProt P16234)
T4 construct: literature Ambit Biosciences

[7] = target: T5, PRKCE (Homo sapiens, UniProt Q02156)
T5 construct: literature Ambit Biosciences
T5 sequence (Q02156 1-737): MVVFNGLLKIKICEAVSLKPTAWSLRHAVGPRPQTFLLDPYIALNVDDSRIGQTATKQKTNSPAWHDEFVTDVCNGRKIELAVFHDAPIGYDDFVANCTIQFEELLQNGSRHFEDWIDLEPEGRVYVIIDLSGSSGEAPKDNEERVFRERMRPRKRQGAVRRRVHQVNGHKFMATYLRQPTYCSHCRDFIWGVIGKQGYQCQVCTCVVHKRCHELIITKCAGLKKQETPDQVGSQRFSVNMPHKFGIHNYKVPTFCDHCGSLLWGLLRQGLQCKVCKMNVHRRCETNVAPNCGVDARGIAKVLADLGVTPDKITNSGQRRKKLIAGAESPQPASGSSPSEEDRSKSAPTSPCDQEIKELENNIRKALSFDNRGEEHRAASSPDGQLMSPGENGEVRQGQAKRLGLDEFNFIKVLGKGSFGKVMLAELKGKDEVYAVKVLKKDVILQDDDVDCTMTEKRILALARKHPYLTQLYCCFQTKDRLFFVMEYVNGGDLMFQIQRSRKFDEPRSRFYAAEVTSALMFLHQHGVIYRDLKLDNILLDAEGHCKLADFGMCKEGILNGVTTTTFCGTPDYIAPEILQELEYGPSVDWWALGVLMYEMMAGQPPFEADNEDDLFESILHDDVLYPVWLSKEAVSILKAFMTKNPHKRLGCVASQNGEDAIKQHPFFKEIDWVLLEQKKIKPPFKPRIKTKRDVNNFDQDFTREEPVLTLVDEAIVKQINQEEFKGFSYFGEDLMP

[8] = target: T6, p38-beta (Homo sapiens, UniProt Q15759)
T6 construct: literature Ambit Biosciences

[9] = target: T7, BRAF (Homo sapiens, UniProt P15056)
T7 construct: literature Ambit Biosciences

[10] = target: T8, MKNK1 (Homo sapiens, UniProt Q9BUB5)
T8 construct: literature Ambit Biosciences

[11] = target: T9, TYK2 (catalytic) (Homo sapiens, UniProt P29597)
T9 construct: catalytic; literature Ambit Biosciences

[12] = target: T10, PDGFRB (Homo sapiens, UniProt P09619)
T10 construct: literature Ambit Biosciences
T10 sequence (P09619 33-1106): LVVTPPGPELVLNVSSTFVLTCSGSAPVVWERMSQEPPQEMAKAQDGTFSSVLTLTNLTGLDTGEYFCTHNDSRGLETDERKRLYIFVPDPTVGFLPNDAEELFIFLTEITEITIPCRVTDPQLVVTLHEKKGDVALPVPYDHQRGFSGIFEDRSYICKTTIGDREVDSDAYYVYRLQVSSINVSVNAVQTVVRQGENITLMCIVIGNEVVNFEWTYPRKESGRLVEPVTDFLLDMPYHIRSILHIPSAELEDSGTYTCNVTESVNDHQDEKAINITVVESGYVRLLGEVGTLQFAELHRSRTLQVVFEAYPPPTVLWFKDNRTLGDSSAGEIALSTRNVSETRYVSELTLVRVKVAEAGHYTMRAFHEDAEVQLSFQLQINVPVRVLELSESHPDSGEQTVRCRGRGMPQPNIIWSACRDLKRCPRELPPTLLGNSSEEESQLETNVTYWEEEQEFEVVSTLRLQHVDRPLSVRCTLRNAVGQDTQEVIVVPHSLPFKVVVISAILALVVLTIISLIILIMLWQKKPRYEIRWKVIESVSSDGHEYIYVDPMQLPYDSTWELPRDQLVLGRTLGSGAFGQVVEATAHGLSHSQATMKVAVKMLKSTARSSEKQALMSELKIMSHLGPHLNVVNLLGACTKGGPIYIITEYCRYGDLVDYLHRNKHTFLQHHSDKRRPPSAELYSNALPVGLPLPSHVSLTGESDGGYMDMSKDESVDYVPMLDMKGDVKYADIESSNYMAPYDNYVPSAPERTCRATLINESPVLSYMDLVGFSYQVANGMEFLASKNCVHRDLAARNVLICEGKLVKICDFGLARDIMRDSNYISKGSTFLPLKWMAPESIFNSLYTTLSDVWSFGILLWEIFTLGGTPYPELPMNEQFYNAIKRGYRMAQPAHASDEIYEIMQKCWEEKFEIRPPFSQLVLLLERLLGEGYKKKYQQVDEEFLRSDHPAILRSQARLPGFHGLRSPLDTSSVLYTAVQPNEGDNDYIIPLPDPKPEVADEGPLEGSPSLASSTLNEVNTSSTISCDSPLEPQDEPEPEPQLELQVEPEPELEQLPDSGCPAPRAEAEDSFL

T3 sequence (P04626 23-1255): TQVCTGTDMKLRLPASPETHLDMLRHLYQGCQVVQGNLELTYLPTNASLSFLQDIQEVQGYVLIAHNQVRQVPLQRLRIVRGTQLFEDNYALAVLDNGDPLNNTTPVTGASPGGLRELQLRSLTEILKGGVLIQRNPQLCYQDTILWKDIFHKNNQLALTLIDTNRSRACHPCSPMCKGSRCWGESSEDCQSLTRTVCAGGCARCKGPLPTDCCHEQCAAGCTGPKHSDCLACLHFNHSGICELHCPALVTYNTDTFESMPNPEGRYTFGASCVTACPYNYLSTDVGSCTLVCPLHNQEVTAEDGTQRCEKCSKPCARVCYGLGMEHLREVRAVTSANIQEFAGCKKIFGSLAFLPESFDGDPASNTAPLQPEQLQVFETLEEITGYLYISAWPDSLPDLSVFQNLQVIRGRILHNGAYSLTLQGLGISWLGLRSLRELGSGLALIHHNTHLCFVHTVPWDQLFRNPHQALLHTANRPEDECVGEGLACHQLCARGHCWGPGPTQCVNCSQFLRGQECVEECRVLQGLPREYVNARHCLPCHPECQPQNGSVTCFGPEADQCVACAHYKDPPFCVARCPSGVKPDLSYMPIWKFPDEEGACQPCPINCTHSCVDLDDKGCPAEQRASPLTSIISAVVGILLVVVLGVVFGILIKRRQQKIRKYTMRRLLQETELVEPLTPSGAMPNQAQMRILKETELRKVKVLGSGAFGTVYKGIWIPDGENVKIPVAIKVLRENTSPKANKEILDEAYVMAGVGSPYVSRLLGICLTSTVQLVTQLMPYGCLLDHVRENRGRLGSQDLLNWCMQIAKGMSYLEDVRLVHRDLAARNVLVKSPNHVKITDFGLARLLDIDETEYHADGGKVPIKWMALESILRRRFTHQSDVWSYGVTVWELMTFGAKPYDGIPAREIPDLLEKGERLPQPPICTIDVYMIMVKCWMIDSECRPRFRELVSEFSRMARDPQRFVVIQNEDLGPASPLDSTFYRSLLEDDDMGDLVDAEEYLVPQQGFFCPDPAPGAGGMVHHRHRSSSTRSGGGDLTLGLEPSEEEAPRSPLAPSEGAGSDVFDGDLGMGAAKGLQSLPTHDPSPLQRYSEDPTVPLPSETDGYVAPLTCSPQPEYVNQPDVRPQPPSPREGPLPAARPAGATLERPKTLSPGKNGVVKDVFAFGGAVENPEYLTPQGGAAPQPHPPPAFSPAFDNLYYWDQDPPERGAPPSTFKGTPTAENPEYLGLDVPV
T7 sequence (P15056 whole entry): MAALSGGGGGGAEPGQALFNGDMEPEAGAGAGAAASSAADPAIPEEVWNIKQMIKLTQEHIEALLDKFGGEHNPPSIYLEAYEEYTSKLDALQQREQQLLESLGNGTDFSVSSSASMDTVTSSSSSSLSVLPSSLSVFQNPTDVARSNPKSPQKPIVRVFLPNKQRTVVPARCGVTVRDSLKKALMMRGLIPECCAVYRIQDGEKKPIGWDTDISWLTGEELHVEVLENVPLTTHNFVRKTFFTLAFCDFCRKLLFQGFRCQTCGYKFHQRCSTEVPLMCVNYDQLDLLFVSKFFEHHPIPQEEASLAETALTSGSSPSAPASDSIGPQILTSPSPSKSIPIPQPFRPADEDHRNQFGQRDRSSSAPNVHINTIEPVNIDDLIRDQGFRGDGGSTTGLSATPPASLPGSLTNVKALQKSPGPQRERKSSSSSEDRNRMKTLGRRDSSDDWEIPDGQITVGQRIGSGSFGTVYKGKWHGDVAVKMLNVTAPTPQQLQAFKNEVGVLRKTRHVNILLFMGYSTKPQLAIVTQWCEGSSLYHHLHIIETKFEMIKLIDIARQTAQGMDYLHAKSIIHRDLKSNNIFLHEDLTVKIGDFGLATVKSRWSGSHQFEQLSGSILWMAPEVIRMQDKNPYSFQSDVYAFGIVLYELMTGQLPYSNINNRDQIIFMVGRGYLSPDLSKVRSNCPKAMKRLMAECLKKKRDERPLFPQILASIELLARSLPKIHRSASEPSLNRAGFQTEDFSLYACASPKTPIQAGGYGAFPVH
T1 sequence (P04049 whole entry): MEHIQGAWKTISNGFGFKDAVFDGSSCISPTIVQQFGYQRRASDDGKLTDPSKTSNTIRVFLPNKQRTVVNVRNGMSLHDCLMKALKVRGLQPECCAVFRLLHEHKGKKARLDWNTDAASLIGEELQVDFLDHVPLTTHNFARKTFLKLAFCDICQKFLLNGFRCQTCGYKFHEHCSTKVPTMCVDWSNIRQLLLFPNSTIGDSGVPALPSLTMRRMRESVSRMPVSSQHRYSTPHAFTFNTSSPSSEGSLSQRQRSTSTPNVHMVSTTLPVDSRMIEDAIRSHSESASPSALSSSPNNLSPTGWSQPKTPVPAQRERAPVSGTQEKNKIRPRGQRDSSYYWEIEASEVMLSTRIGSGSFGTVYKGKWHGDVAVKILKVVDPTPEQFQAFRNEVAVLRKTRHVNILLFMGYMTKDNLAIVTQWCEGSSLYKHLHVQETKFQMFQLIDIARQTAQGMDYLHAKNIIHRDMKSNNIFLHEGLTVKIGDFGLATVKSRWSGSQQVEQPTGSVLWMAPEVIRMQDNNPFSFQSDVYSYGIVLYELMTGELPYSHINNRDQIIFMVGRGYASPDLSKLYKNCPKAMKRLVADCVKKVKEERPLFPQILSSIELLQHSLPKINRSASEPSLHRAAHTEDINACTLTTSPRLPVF
Chain of KIT (P10721 26-976): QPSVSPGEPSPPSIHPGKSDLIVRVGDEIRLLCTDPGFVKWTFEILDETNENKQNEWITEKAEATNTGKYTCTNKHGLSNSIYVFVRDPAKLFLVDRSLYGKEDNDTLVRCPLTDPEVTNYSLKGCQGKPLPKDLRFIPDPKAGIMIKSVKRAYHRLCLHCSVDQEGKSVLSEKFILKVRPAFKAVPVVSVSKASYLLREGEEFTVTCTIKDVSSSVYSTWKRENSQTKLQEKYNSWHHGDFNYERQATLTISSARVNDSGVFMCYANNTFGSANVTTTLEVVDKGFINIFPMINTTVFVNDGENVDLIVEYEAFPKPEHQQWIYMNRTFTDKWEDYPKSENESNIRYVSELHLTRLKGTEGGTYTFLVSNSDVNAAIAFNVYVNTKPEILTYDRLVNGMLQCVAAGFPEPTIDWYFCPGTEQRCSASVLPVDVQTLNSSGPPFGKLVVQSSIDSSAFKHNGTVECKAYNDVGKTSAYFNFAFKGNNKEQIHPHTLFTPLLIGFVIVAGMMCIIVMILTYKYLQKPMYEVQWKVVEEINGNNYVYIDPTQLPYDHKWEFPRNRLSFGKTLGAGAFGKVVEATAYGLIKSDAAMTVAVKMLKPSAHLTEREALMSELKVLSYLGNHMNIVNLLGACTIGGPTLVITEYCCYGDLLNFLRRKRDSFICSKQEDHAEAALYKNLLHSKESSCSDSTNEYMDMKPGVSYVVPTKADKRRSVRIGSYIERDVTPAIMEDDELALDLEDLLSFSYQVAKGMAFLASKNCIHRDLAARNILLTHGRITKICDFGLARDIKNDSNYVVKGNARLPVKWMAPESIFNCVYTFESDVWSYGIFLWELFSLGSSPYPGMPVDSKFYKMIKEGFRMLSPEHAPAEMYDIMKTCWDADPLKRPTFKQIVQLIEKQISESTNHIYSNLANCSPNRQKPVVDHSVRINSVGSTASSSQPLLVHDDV
Chain of BRAF(V600E) (P15056 whole entry V600E): as the sequence (P15056 whole entry) above, with V600E counted along it
T9 sequence (P29597 897-1176 limits assumed): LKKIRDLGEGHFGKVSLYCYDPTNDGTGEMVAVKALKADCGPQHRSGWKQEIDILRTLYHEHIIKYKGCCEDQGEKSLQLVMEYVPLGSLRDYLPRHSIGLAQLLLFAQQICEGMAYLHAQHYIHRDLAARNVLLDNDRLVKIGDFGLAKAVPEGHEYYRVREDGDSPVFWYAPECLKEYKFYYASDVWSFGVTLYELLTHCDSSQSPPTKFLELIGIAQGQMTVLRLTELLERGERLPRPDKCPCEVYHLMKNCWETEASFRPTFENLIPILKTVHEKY

Row | Compound | inhibition of RAF1 [1] | inhibition of BRAF(V600E) [2] | inhibition of PLK4 [3] | inhibition of ERBB2 [4] | inhibition of KIT [5] | inhibition of PDGFRA [6] | inhibition of PRKCE [7] | inhibition of p38-beta [8] | inhibition of BRAF [9] | inhibition of MKNK1 [10] | inhibition of TYK2 (catalytic) [11] | inhibition of PDGFRB [12]
1 | Cc1ccc(NC(=O)c2[nH]c(C(F)(F)F)nc2-c2ccc(F)cc2)cc1Nc1ccc2ncn(C)c(=O)c2c1 [KIN-035] | XXXX (XXXX > 90% @ 1 μM) | XXXX (XXXX > 90% @ 1 μM) | X (X > 25% @ 1 μM) | X (X > 25% @ 1 μM) | XXXX (XXXX > 90% @ 1 μM) | XX (XX > 50% @ 1 μM) | X (X > 25% @ 1 μM) | X (X > 25% @ 1 μM) | XXXX (XXXX > 90% @ 1 μM) | XX (XX > 50% @ 1 μM) | X (X > 25% @ 1 μM) | XXX (XXX > 75% @ 1 μM)
2 | Cc1ccc(-c2nc(C(F)(F)F)[nH]c2C(=O)Nc2ccc(C)c(Nc3ccc4ncn(C)c(=O)c4c3)c2)cc1F [KIN-038] | XXXX (XXXX > 90% @ 1 μM) | XXXX (XXXX > 90% @ 1 μM) | X (X > 25% @ 1 μM) | X (X > 25% @ 1 μM) | XXXX (XXXX > 90% @ 1 μM) | XX (XX > 50% @ 1 μM) | X (X > 25% @ 1 μM) | X (X > 25% @ 1 μM) | XXX (XXX > 75% @ 1 μM) | X (X > 25% @ 1 μM) | X (X > 25% @ 1 μM) | XX (XX > 50% @ 1 μM)
